Here are results for 5 molecules from paper PMC9541272, “Carba Analogues of Flupirtine and Retigabine with Improved Oxidation Resistance and Reduced Risk of Quinoid Metabolite Formation” (Chemmedchem, 2022).

Entries after “also recorded” stand apart in the source; their conditions may differ. Where two headings read alike, the source gives them in different places.

The test system of data set [1] is TAMH mouse liver cell line.
In data set [2] the test system is HEP‐G2 human hepatoma cell line.
A short description of data set [3]: LogD7.4 estimation by HPLC-based method. It counts as physicochemical. To be noted: for logD7.4 (single determination): calculated from retention time with one calibration function (A–F). As to the method: The logarithm of the capacity factors of the reference substances was then plotted against the corresponding logP values taken from the mentioned guideline to obtain a calibration function. For non‐ionizable compounds like the reference substances used for calibration, logP values can be considered equivalent to the logD 7.4 values. To obtain a reference mixture, 2 mg of the reference substances were each dissolved in 1 mL of methanol, and 50 μL aliquots of each reference solution were subsequently combined. The reference mixture was measured before and after the substances to be tested, and the mean retention time from both measurements was used to calculate the calibration function. The calibration function was then used to determine the logD 7.4 values from the corresponding retention times for each substance to be tested. The compounds of interest were injected as a solution in methanol (2 mg/mL), and the retention time was determined as the mean value from two measurements.

Data set [4] is described as follows: Cyclic voltammetry, anodic peak potential (oxidizability). Format: physicochemical. To be noted: 0.1 M Tris‐HCl buffer pH 7.4, −0.5 to 1.0 V, sweep rate 0.1 V/s, –[b] = no oxidation observed in the specified potential range.
Data set [5] has as its target KV7.2/3 channel (Homo sapiens, UniProt O43525+O43526). Put plainly: KV7.2/3 channel opening activity, thallium-flux FLIPR Potassium Assay in HEK-293 cells overexpressing KV7.2/3. Particulars: for Emax: HEK293E, read-out: Efficacy. Details: Emax: dose or concentration left out as unconfirmed.
Where [6] appears, read: pH 7.4, calculated from retention time with one calibration function (A–F), Table S7, read-out: logD7.4 (single determination).
The mark [7] stands for this setting: pH 7.4, estimated by HPLC-based method, pH 7.4, read-out: LogD 7.4.
Where [8] appears, read: KV7.2/3 opening, ratio of EC50 values.
Where [9] appears, read: HEP‐G2, MTT assay, 24 h exposure.

KV7.2/3 channel, sequence (O43525 whole entry): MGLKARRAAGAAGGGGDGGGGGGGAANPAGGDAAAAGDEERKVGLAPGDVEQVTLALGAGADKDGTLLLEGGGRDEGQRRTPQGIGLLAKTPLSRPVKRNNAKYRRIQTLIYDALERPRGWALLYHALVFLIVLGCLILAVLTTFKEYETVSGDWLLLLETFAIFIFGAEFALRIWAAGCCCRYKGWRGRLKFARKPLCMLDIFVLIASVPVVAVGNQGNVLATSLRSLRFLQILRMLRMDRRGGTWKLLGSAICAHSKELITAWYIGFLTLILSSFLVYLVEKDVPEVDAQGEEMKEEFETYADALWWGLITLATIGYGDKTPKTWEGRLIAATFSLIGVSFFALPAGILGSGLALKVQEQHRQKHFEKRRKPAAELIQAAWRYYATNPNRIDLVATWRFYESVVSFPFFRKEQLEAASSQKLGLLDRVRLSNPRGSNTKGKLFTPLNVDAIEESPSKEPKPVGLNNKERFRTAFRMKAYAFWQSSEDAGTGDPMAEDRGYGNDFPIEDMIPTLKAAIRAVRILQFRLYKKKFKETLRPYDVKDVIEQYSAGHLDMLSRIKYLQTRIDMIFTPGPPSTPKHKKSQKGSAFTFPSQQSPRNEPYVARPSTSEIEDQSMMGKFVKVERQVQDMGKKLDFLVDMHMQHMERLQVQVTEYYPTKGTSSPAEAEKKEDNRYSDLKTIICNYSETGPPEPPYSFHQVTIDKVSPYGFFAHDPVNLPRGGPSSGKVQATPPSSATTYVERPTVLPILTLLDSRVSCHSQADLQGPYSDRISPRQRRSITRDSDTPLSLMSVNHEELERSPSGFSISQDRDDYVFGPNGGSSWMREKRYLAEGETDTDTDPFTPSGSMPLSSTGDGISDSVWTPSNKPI
KV7.2/3 channel, sequence (O43526 whole entry): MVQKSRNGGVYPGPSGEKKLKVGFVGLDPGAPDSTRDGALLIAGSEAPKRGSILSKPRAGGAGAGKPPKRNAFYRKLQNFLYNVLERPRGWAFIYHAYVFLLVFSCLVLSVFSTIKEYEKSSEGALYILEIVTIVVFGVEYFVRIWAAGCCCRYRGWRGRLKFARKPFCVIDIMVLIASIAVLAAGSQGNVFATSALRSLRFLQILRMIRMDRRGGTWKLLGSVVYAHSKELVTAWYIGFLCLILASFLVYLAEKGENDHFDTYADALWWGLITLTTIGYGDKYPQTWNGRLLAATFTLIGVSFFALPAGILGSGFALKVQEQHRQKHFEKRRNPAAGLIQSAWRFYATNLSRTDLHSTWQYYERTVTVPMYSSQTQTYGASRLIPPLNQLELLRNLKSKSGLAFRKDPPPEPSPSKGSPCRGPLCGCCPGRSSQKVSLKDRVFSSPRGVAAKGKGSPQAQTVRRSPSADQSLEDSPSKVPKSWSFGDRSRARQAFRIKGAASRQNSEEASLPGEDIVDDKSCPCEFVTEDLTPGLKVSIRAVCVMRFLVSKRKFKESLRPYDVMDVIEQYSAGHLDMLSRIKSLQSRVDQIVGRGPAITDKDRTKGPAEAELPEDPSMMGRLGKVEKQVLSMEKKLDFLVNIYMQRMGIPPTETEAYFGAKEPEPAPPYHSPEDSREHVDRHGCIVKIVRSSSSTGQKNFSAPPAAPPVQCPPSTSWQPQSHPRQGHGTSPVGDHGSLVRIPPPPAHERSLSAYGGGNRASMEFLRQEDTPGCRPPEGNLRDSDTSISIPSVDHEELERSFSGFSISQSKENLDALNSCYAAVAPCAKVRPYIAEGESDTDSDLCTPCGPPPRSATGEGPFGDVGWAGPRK

Take `Cc1cc(CNc2ccc(F)cc2)ccc1NC(=O)c1ccccc1CO` [compound 48, N ‐(4‐{[(4‐Fluorophenyl)amino]methyl}‐2‐methylphenyl)‐2‐(hydroxymethyl)benzamide]: the “LD25 (concentration to reduce cell viability by 25 %)” value in data set [1] (mouse, 24 h) was found to be 70 ± 10 µM; in data set [2] (human, 24 h), 80 ± 7 µM. Besides, the “LD50 (concentration to reduce cell viability by 50 %)” value in data set [1] (mouse, 24 h) was above 125 µM; in data set [2] (human, 24 h), 84 ± 6 µM. In data set [3] (Table S7), the “logD7.4 (single determination)” value is 2.899. For the same molecule, the values for the chromatographic logD in data set [3] (setting [6]) and in data set [3] (setting [7]) were 2.93 and 2.9, respectively. Besides, in data set [4], the “Ep.a. (anodic peak potential)” value is “no anodic peak potential could be determined; also recorded: –^[b]”. In addition, the “KV7.2/3 opening activity (in words)” value in data set [5] (HEK‐293 cells overexpressing KV7.2/3) is “inactive”. Besides, in data set [5] (HEK‐293 cells overexpressing KV7.2/3, mean ± SD, at least three determinations, –[e] = inactive up to a concentration of 20 μM), the “EC50 (required concentration to reach half‐maximal KV7.2/3 channel opening activity)” value is “–^[e]”. For the same molecule, in data set [5] (maximal fluorescence signal relative to flupirtine (100 %), HEK‐293, –[e] = inactive up to a concentration of 20 μM), the Efficacy result was “–^[e]”.
One may read the EC50 as the concentration giving half of the maximal effect. For the molecule `CCCC(=O)Nc1ncc(CNc2ccc(F)cc2)cc1C1CC1` [43 c, N ‐(3‐Cyclopropyl‐5‐{[(4‐fluorophenyl)amino]methyl}pyridin‐2‐yl)butyramide], the “LD25 (concentration to reduce cell viability by 25 %)” value in data set [1] (mouse, 24 h) was 76 ± 52 µM; in data set [2] (human, 24 h), 55 ± 17 µM. Also, the “LD50 (concentration to reduce cell viability by 50 %)” value was above 125 µM in data set [1] (mouse, 24 h) and above 125 µM in data set [2] (human, 24 h). Also, the “logD7.4 (single determination)” value in data set [3] (Table S7) is given as 2.772. Moreover, the chromatographic logD in data set [3] (setting [6]) is 2.77; in data set [3] (setting [7]) it was 2.8. For the same molecule, in data set [4], the “Ep.a. (anodic peak potential)” value is reported as 678 mV. Also, the response in data set [5] was half-maximal at 2020 ± 1200 nM (EC50). In addition, the Emax in data set [5] was 138 ± 20%. The “fold increase in potency compared to 43 a” value in data set [5] (setting [8]) turned out to be 2.4 fold. Moreover, the “increase in efficiency compared to 43 a” value in data set [5] (difference of efficacy values) is listed as 49%.
With `CCCC(=O)Nc1ccc(CNc2ccc(F)cc2)cc1C` [35 b, N ‐(4‐{[(4‐Fluorophenyl)amino]methyl}‐2‐methylphenyl)butyramide], in data set [1] (mouse, 24 h), the “LD25 (concentration to reduce cell viability by 25 %)” value is above 125 µM and the “LD50 (concentration to reduce cell viability by 50 %)” value is above 125 µM. Besides, in data set [2] (human, 24 h), the “LD25 (concentration to reduce cell viability by 25 %)” value came to 88 ± 9 µM and the “LD50 (concentration to reduce cell viability by 50 %)” value is above 125 µM. Besides, the “logD7.4 (single determination)” value in data set [3] (Table S7) is 2.870. In data set [3] (setting [6]), the chromatographic logD was 2.88. The chromatographic logD in data set [3] (setting [7]) was 2.9. The “Ep.a. (anodic peak potential)” value in data set [4] is 618 mV. Further, in data set [5], the EC50 is 675 ± 276 nM and the Emax worked out at 176 ± 14%.
As for `CCCC(=O)Nc1ncc(CNc2ccc(F)cc2)cc1C` [43 a, N ‐(5‐{[(4‐Fluorophenyl)amino]methyl}‐3‐methylpyridin‐2‐yl)butyramide], in data set [1] (mouse, 24 h), the “LD25 (concentration to reduce cell viability by 25 %)” value came to 110 ± 54 µM and the “LD50 (concentration to reduce cell viability by 50 %)” value was above 125 µM. Moreover, in data set [2] (human, 24 h), the “LD25 (concentration to reduce cell viability by 25 %)” value turned out to be 46 ± 24 µM and the “LD50 (concentration to reduce cell viability by 50 %)” value was above 125 µM. In data set [3] (Table S7), the “logD7.4 (single determination)” value is reported as 2.341. In addition, the chromatographic logD in data set [3] (setting [6]) was 2.33. For the same molecule, the chromatographic logD in data set [3] (setting [7]) was 2.3. The “Ep.a. (anodic peak potential)” value in data set [4] turned out to be 678 mV. In data set [5], the EC50 was found to be 4840 ± 2910 nM and the Emax is 89 ± 32%.
As to `CCOC(=O)Nc1ccc(NCc2ccc(F)cc2)cc1N` [Ret, retigabine], the “LD25 (concentration to reduce cell viability by 25 %)” value in data set [1] (TAMH, MTT assay, 24 h exposure) is above 400 µM; in data set [2] (setting [9]), 269 ± 166 µM. For the same molecule, the “LD50 (concentration to reduce cell viability by 50 %)” value in data set [1] (TAMH, MTT assay, 24 h exposure) is above 400 µM; in data set [1] (TAMH, MTT assay, 24 h exposure, listed as retigabine), “above 400 μM”; in data set [2] (setting [9]), above 400 µM; in data set [2] (HEP‐G2, MTT assay, 24 h exposure, listed as retigabine) it was “above 400 μM”. In addition, the “Ep.a. (anodic peak potential)” value in data set [4] is 260 mV. In data set [5], the EC50 was 249 ± 52 nM. In addition, in data set [5], the Emax stood at 119 ± 7%. Moreover, the “fold increase in potency compared to flupirtine” value in data set [5] (setting [8]) was found to be 7 fold.
